The text below walks through data of patent US20100261753A1, “METHODS FOR PREVENTING AND/OR TREATING DEGENERATIVE DISORDERS OF THE CENTRAL NERVOUS SYSTEM” (AMICUS THERAPEUTICS, INC., priority 2009, published 2010).

The structures appear in SMILES notation. Where a name gives a salt, the structure may show the parent alone.

A short description of data set [1]: Compound concentration in brain, spleen and plasma samples of the GCase enhancement study. Particulars: male, C57BL/6, mouse, po, nine doses, 24-hour washout. The data set is classed as in vivo, mice (C57BL/6). The procedure:
(§1) The ability of orally administered test compounds (the hydrochloride salt form of Compound A and Compound B) to elevate GCase levels as compared to reference compound, IFG-tartrate, was assessed in mice. […] Seven animals were used per dose. The dosing solutions were prepared in water. Compounds were administered over 2 weeks as follows: week 1, Mon-Fri (On), Sat-Sun (Off); week 2, Mon-Thu (On); necropsy on Friday. Thus, a total of 9 doses (dosing solutions prepared fresh every day) were given to each mouse, with a 24-hour washout between the last dose and necropsy.
(§2) Plasma was collected by spinning blood at 2700 g for 10 minutes at 4° C. Liver, spleen, lung, and brain tissues were removed, washed in cold PBS, blotted dry, flash frozen on dry ice, and stored at −80° C. until analysis. GCase levels were measured by homogenizing approximately 50 mg tissue in 500 μl McIlvane (MI) buffer (100 mM sodium citrate, 200 mM sodium phosphate dibasic, 0.25% sodium taurocholate, and 0.1% Triton X-100, pH 5.2) at pH 5.2 for 3-5 seconds on ice with a micro homogenizer. Homogenates were then incubated at room temperature without and with 2.5 mM conduritol-B-epoxide (CBE) for 30 min. Finally, 3.7 mM 4-methylumbeliferryl-β-glucoside (4-MUG) substrate was added and incubated at 37° C. for 60 min. Reactions were stopped by addition of 0.4 M glycine, pH 10.6. Fluorescence was measured on a plate reader for 1 sec/well using 355 nm excitation and 460 nm emission. Total protein was determined in lysates using the MicroBCA kit according to the manufacturer's instructions. A 4-methylumbelliferone (4-MU) standard curve ranging from 1.0 nM to 50 μM was run in parallel for conversion of raw fluorescence data to absolute GCase activity (in the presence and absence of CBE) and expressed as nanomoles of 4-MU released per milligram of protein per hour (nmol/mg protein/hr). GCase levels and protein levels were calculated using Microsoft Excel (Redmond, Wash.) and GraphPad Prism version 4.02.

The target in another data set is T1, GCase (Mus musculus, UniProt P17439).
T1 construct: Liver, spleen, lung, and brain tissues were removed; from tissue; host or cells: brain, spleen, liver and lung of wild-type C57BL/6 mice
T1 sequence (P17439 20-515): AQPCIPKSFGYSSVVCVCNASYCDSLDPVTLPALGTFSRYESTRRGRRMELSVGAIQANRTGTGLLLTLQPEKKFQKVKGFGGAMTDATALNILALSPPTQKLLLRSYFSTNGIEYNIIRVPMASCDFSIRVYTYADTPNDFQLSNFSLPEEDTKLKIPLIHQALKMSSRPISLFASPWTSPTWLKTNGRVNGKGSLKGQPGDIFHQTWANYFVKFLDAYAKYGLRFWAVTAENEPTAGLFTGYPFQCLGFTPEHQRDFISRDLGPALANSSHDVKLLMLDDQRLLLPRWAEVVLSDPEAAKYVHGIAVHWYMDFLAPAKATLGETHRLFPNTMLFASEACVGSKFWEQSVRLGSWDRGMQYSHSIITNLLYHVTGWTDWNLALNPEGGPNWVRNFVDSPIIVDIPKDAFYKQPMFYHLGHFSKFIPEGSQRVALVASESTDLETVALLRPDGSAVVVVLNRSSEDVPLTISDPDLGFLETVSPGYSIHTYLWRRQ
The data set is described as follows: GCase enhancement in tissues of mice after 2-week oral dosing. The data set is classed as in vivo, mice (C57BL/6). Particulars: for GCase enhancement in brain, spleen, liver and lung: compared to mice administered control or IFG-tartrate; for GCase Increase (-fold): nine doses over 2 weeks. The procedure:
as §1, §2

Another data set addresses T2, lysosomal GCase (Homo sapiens, UniProt P04062).
T2 construct: lysosomal GCase activity was assayed in situ using fibroblasts established from a normal subject; endogenous in cells; host or cells: fibroblasts established from a normal subject
T2 sequence (P04062 40-536): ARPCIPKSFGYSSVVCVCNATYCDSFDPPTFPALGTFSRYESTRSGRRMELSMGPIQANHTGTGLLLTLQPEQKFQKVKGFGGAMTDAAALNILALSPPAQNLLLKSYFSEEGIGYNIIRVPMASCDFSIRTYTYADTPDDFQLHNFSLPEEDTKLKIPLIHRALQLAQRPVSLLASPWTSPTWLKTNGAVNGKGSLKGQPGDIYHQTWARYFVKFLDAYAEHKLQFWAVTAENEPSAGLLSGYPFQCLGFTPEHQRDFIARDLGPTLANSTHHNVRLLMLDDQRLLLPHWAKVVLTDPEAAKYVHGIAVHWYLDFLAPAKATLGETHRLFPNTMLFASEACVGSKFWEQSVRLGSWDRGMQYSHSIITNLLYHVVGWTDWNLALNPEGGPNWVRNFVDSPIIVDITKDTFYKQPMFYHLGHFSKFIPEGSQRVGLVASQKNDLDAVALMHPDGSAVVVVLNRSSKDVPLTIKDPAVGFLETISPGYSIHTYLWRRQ
In words: In situ lysosomal GCase inhibition and washout assay in fibroblasts from a normal subject. The data set is classed as cell-based. Particulars: for IC50: normal fibroblasts, 16-24 h incubation, PFBFDβGlu substrate; for In Situ Washout: washout time after treatment at IC90, single exponential fit. As for the experimental part: For the dose-response assays, cells were incubated with the in situ substrate 5-(pentafluorobenzoylamino)fluorescein di-β-D-glucopyranoside (PFBFDβGlu) for 1 hour and subsequently lysed to determine the extent of substrate hydrolysis in the presence of compound. […] Inhibition was determined as the ratio of activity in the presence of compound to that in the absence of compound. […] Cells were washed extensively and incubated in drug-free medium to allow net compound efflux from cells. Cells were then tested for lysosomal GCase activity at 2 hour intervals over a total period of 8 hours following compound removal. The increase in activity over time was fitted with a single exponential function to determine the compound's washout time.

[2] abbreviates: brain, 100 mg/kg p.o., Table 4A.
[3] abbreviates: spleen, 10 mg/kg p.o., Table 4B.
[4] abbreviates: spleen, 100 mg/kg p.o., Table 4B.

For the compound `O[C@@H]1CNCC(CF)[C@H]1O` (stereo in doubt) [Compound A, (3R,4R,5R)-5-(fluoromethyl)piperidine-3,4-diol], the concentration at 24 h is 124 ± 11 nM in data set [1] (brain, 10 mg/kg p.o., Table 3A); 726 ± 51 nM in data set [1] (brain, 100 mg/kg p.o., Table 3A); 32 ± 2.4 nM in data set [1] (plasma, 10 mg/kg p.o., Table 3C); 254 ± 73.5 nM in data set [1] (plasma, 100 mg/kg p.o., Table 3C); 69 ± 6 nM in data set [1] (spleen, 10 mg/kg p.o., Table 3B); 304 ± 63 nM in data set [1] (spleen, 100 mg/kg p.o., Table 3B).
`O[C@@H]1CNCC(CF)[C@H]1O` (stereo in doubt) [Compound A-HCl, (3R,4R,5R)-5-(fluoromethyl)piperidine-3,4-diol hydrochloride]: on GCase, the “GCase enhancement in brain, spleen, liver and lung” value is recorded as “statistically significant greater GCase enhancement”. In addition, at lysosomal GCase, inhibition was half-maximal at 17 ± 8 nM (IC50) and the “In Situ Washout” value stood at 6.6 ± 0.12 h.
For `O[C@@H]1[C@@H](CCl)CNC[C@H]1O` [Compound B, (3R,4R,5S)-5-(chloromethyl)piperidine-3,4-diol], the concentration at 24 h in data set [1] (brain, 10 mg/kg p.o., Table 4A) was found to be 246 ± 42 nM; in data set [1] (setting [2]), 2070 ± 231 nM; in data set [1] (plasma, 10 mg/kg p.o., Table 4C), 104 ± 15 nM; in data set [1] (plasma, 100 mg/kg p.o., Table 4C), 1530 ± 601 nM; in data set [1] (setting [3]), 645 ± 214 nM; in data set [1] (setting [4]), 2160 ± 464 nM. For the same compound, the “GCase Increase (-fold)” value at GCase (brain, 10 mg/kg p.o., Table 4A) is 1.3 -fold; on GCase (setting [2]), 3.5 -fold; at GCase (setting [3]), 1.4 -fold; on GCase (setting [4]) it was 2.2 -fold. Besides, on GCase, the “GCase enhancement in brain, spleen, liver and lung” value is reported as “statistically significant greater GCase enhancement”. Half-maximal inhibition against lysosomal GCase (IC50) required 121 ± 7 nM. Also, at lysosomal GCase, the “In Situ Washout” value worked out at 2.9 ± 0.22 h.
